From patent US20200261605A1, “FUNCTIONALIZED LIPOSOMES FOR IMAGING MISFOLDED PROTEINS” (ALZECA BIOSCIENCES, LLC, priority 2019, published 2020) come the findings set out here.

Assay [1] concerns the target tau fibrils (phosphorylated tau-441 (2N4R)) (Homo sapiens, UniProt P10636). Briefly: Binding studies with tau fibrils (fluorescence, no separation). The note with it: 0.85 μM tau fibrils, 2 hours; Ex 360 nm, Em 535 nm. How it is done:
Lyophilized tau-441 (2N4R) was dissolved in buffer containing 40 mM HEPES, 5 mM EGTA, 3 mM MgCl2, pH 7.5. Tau was phosphorylated with GSK-3b in the presence of 2 mM ATP at 30° C. for 40 hours. Tau was used at 30-75 μM concentration, and GSK-3b was used at 0.02-0.08 U/pmol of tau. SDS PAGE gel was run to confirm the phosphorylation of tau (FIG. 8).
To make fibrils, the phosphorylated tau was reacted with arachidonic acid (ARA). The p-tau was diluted in 10 mM HEPES, 1 mM EDTA, 5 mM DTT and 150 mM NaCl at pH-7.6 to final concentration of 32 μM and ARA at 37 times molar excess of tau was added. The mixture was incubated for 2 days at 37° C. for 2 days. Fresh DTT was supplemented daily. The oligomers formed were used as seeds for fibril formation. 8 μM of tau seeds were used to form fibrils with 30 μM p-tau in 10 mM HEPES, 1 mM EDTA, 5 mM DTT and 150 mM NaCl at pH-7.6. ARA was used at 37 times molar excess over p-tau monomer and incubated at 37° C. for 2 days. Fresh DTT was added every day.
Different dilutions of p-FTAA molecule were added and mixed with 0.85 μM of tau fibrils and incubated for 2 hours. The mixture was assayed as is without separation of bound and unbound fibrils. Excitation at 360 nm and emission at 535 nm was used for detection of p-FTAA binding to tau fibrils.

Assay [2] addresses α-Synuclein fibrils (Homo sapiens, UniProt P37840). Kind of assay: Binding studies with α-Synuclein fibrils (fluorescence of unbound fraction). Particulars: 5 μM α-Synuclein fibrils, 2 hours incubation; read-out: dissociation constant, Kd. As to the method:
Different dilutions of Conjugate A liposomes or p-FTAA were added and mixed with 5 μM of α-Synuclein fibrils and incubated for 2 hours. The mixture was centrifuged at 21000 g for 5 mins. The supernatant was removed and assayed for fluorescence of p-FTAA that was unbound to the fibrils. Excitation of 405 nm and emission of 574 nm emission was used. A standard curve from known concentrations of liposomes or pFTAA was made. The bound fraction was calculated as the difference between the total pFTAA or pFTAA-liposomes that was incubated and the unbound fraction. […] A dissociation constant of 3 nM was determined for the p-FTAA molecule (FIG. 7B).

tau fibrils (phosphorylated tau-441 (2N4R)), sequence (P10636 1-441 isoform P10636-8): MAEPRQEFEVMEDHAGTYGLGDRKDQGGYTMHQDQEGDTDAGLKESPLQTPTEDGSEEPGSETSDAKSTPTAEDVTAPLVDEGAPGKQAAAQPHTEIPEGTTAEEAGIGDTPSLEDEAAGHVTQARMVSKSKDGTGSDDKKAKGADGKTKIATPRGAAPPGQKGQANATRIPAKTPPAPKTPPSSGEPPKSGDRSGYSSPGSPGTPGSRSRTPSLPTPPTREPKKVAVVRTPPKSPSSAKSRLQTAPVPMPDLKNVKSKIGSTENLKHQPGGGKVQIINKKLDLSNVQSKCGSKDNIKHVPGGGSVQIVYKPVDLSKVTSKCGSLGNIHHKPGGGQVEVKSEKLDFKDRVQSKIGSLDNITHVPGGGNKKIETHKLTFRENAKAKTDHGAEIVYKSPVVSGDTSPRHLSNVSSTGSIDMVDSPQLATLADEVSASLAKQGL

What is called Kd is the constant that tells how readily two partners part at equilibrium. `O=C(O)Cc1cc(-c2ccc(C(=O)O)s2)sc1-c1ccc(-c2sc(-c3ccc(C(=O)O)s3)cc2CC(=O)O)s1` [p-FTAA, pentameric formyl thiophene acetic acid]: in assay [1], the “fluorescence with tau fibrils in comparison to p-FTAA only” value is listed as “increase in fluorescence”. In addition, in assay [2], the dissociation constant Kd amounted to 3 nM.
